Results from patent US6518399B1, “Receptor” (Smithkline Beecham Corporation, priority 1998, dated 2003).

T1: HA-GABAB-R2 (Homo sapiens, UniProt O75899)
T1 construct: heterodimerisation between full-length expressed GABAB-R1 and GABAB-R2 in mammalian cells; expressed in transfected cells; host or cells: HEK293T
T1 sequence (O75899 42-941): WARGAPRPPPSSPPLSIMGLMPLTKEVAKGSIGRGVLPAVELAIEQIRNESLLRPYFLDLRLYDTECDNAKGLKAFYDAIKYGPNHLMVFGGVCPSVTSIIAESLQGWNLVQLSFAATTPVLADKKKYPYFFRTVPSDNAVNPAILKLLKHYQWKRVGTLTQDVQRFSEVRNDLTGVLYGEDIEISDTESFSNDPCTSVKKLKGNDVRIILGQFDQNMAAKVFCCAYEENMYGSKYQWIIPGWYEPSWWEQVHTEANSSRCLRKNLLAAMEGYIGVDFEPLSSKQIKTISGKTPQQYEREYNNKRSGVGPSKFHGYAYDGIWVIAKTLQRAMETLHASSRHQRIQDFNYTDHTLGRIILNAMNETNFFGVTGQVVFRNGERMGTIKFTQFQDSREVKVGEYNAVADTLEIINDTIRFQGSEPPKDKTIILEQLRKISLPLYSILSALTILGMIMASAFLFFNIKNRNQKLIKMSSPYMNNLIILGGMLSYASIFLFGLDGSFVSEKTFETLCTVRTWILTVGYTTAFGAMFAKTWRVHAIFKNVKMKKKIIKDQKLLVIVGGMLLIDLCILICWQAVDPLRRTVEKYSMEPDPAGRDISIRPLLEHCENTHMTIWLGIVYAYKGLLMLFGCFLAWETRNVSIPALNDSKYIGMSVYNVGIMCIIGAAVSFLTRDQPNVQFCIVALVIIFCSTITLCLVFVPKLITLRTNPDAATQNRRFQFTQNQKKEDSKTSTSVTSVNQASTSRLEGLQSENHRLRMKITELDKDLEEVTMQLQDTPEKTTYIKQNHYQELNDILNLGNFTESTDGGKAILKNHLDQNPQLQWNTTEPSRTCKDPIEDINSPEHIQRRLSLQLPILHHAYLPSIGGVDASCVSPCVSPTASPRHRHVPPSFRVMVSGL

B1: GABAB-R1 C-terminal domain (C-terminal 108 amino acids of GABAB-R1), GAL4 fusion (receptor, not shown: small tags and cut ends)
chain: VPKMRRLITRGEWQSEAQDTMKTGSSTNNNEEEKSRLLEKENRELEKIIAEKEERVSELRHQLQSRQQLRSRRHPPTPPEPSGGLPRGPPEPPDRLSCDGSRVHLLYK
notes: Used as GAL4BD fusion in the library screen and as both GAL4BD and GAL4AD fusions in the direct test (all combinations); also called GABAB-R1 C-terminus; GAL4BD-GABAB-R1 C-terminus
B2: GABAB-R2 C-terminal domain, GAL4 fusion (receptor, not shown: small tags and cut ends)
chain: VPKLITLRTNPDAATQNRRFQFTQNQKKEDSKTSTSVTSVNQASTSRLEGLQSENHRLRMKITELDKDLEEVTMQLQDTPEKTTYIKQNHYQELNDILNLGNFTESTDGGKAILKNHLDQNPQLQWNTTEPSRTCKDPIEDINSPEHIQRRLSLQLPILHHAYLPSIGGVDASCVSPCVSPTASPRHRHVPPSFRVMVSGL
notes: Only the intracellular C-terminal domain of GABAB-R2 was used; also called GABAB-R2 C-terminus; YTH HITS

What was measured:
[1] = tested on: GABAB-R1a, GABAB-R1b or GABAB-R2 receptors expressed alone; assay type: cell-based, human; conditions: for Functional response, CFTR or GIRK1/4 current: GABAB-R1a, GABAB-R1b or GABAB-R2 expressed singly with CFTR or GIRK1/4
Description: Adult female Xenopus laevis (Blades Biologicals) were anaesthetised using 0.2% tricaine (3-aminobenzoic acid ethyl ester), killed and the ovaries rapidly removed. […] Single stage V and VI oocytes were transferred to ND96 solution (96 mM NaCl, 2 mM KCl, 1 mM MgCl2, 1.8 mM CaCl2, 5 mM HEPES; pH 7.5 at 25° C.) which contained 50 μg ml^−1 gentamycin and stored at 18° C.
GABAB-R1a, GABAB-R1b (both in pcDNA3.1rev, Invitrogen), GABAB-R2, GIRK1, GIRK4 (in pcDNA3) and cystic fibrosis transmembrane regulator (CFTR; in pBluescript, Stratagene) were linearised and transcribed to RNA using T7 or T3 polymerase (Promega Wizard kit). m′G(5′)pp(5′)GTP capped cRNA was injected into oocytes (20-50 nl of 1 μgμl^−1 RNA per oocyte) and whole-cell currents were recorded using two-microelectrode voltage-clamp (Geneclamp amplifier, Axon instruments Inc.) 3 to 7 days post-RNA injection. […] In all experiments oocytes were voltage-clamped at a holding potential of −60 mV in ND96 solution (superfused at 2 ml per min.) and agonists were applied by addition to this extracellular solution. In GIRK experiments the extracellular solution was changed to a high potassium solution prior to agonist application, to facilitate the recording of inward potassium currents. Current-voltage curves were constructed by applying 200 ms voltage-clamp pulses from the holding potential of […] to test potentials between −100 mV and +50 mV.

[2] = biological target: T1, HA-GABAB-R2; test: [3H]-CGP54626 binding, HEK293T cells transfected with HA-GABAB-R2 alone; conditions: HA-GABAB-R2 alone (data not shown)
Description: […]. […] […]

[3] = biological target: HA-GABAB-R1b (Homo sapiens, UniProt Q9UBS5); test: [3H]-CGP54626 binding, HEK293T membranes expressing HA-GABAB-R1b alone; conditions: HA-GABAB-R1b expressed alone
Sequence of HA-GABAB-R1b (Q9UBS5 30-844 isoform Q9UBS5-2 limits assumed): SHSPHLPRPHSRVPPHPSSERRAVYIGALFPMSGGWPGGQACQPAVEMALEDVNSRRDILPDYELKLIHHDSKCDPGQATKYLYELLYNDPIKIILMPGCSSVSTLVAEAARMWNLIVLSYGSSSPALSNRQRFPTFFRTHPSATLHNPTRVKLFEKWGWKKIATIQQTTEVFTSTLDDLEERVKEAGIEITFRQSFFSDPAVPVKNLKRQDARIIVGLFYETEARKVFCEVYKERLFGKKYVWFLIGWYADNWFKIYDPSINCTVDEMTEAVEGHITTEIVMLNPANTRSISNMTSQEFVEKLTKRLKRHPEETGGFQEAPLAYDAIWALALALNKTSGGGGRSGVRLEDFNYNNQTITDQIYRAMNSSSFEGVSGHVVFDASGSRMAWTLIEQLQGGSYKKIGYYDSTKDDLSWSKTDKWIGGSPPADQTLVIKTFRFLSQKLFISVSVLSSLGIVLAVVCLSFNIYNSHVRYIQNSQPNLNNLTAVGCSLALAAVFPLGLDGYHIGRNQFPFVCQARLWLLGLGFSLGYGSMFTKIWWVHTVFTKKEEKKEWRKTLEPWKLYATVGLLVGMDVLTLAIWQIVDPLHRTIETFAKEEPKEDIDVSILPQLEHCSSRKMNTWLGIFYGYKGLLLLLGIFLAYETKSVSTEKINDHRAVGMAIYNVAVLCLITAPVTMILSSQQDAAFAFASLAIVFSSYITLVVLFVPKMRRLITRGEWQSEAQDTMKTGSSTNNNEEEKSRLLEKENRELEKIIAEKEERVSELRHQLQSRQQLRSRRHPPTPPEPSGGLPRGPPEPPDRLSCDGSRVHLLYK

[4] = biological target: B2; test: yeast two hybrid, direct test of the C-termini (β-galactosidase, FIG. 5); GABAB-R2 C-terminal domain also recovered 33 times in the library screen with the GABAB-R1 bait
[5] = biological target: the molecule itself; test: yeast two hybrid, GAL4BD and GAL4AD fusions of the C-termini (FIG. 5); the library screen also did not retrieve the GABAB-R1 C-terminal domain
[6] = biological target: the molecule itself; test: yeast two hybrid, GAL4BD and GAL4AD fusions of the C-termini (FIG. 5)

In the case of `NCC(CC(=O)O)c1ccc(Cl)cc1` (centres unmarked) [Baclofen], the “Functional response, CFTR or GIRK1/4 current” value [1] is reported as “No functional responses”.

In the case of `NCCCC(=O)O` [GABA, γ-amino-butyric acid], the “Functional response, GIRK1/4 current” value ([1]; GABAB-R1a and GABAB-R1b expressed alone (data not shown)) is reported as “gave no response to GABA” and the “Functional response, CFTR or GIRK1/4 current” value [1] is reported as “No functional responses”.

In the case of `C[C@H](NC[C@H](O)CP(=O)(O)CC1CCCCC1)c1ccc(Cl)c(Cl)c1` [[3H]-CGP54626], the “Specific binding of radioligand” value [2] is reported as “unable to detect any [3H]-CGP54626 specific binding” and the “Specific binding of radioligand” value [3] is reported as “high levels of specific binding”.

B1: binds [4]; no binding [5].

B2: no binding [6].
